{"source": "patent US12673050B2", "about": "“Compositions and their use for the treatment of A1-antitrypsin deficiency” (Centessa Pharmaceuticals (UK) Limited, priority 2021, dated 2026)", "key": {"[1]": {"molecular_target": "T1, human Siiyama A1AT (Homo sapiens, UniProt P01009, S77F)", "T1 construct": "expressed in transfected cells; host or cells: HEK-Siiyama cells (HEK-EBNA with Siiyama A1AT plasmid)", "T1 sequence (P01009 25-418 S77F)": "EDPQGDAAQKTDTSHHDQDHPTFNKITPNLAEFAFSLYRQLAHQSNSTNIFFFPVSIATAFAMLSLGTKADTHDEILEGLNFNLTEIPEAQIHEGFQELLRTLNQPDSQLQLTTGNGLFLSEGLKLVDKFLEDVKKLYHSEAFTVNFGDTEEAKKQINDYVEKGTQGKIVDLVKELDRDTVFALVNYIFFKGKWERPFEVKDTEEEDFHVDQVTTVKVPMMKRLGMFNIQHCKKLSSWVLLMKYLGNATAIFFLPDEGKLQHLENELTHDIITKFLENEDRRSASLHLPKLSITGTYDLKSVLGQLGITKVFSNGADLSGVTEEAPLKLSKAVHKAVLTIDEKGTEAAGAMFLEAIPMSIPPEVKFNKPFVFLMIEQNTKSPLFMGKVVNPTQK", "experiment": "A1AT cell secretion assay using HEK-Siiyama cells (ELISA)", "type": "cell-based", "details": "10 μM, 48 h", "procedure": "(§1) HEK-Siiyama cells, a human embryonic kidney cell line stably transfected with the Siiyama A1AT gene, were plated into 96 well plates (3.0×10^5 cells/ml with 200 μl of media/well) overnight at 37° C. in a humidified atmosphere containing 5% CO2. Following incubation cells were washed with 200 μl serum-free media three times and media was replaced with serum-free media containing vehicle, 10 μM suberanilohydroxamic acid (SAHA), (S)-1-((2-(trifluoromethyl)phenyl)sulfonyl)piperidine-3-carboxylic acid (at 1 or 10 μM) or (R)-1-((2-(trifluoromethyl)phenyl)sulfonyl)piperidine-3-carboxylic acid (at 1 or 10 μM) in replicates of eight for 48 h in a 37° C. incubator in a final volume of 200 μl. At the end of the incubation step the supernatants were removed from the wells, centrifuged at 1000×g at 4° C. for 10 min and were assayed for human A1AT levels by ELISA (Human Serpin A1/α1-antitrypsin duo set ELISA, R& D Systems, DY1268) per manufacturer's instructions.\n(§2) Briefly, a 96 well plate was coated with human A1AT capture antibody overnight at room temperature (1:180 dilution from stock, 100 μl final volume/well). The capture antibody was then removed and wells washed three times with 300 μl wash buffer (0.05% Tween 20 in PBS) and then 200 μl reagent diluent (25% Tween 20 in PBS) was incubated in each well for 1 h at room temperature. Diluted samples, standards (125, 250, 500, 1000, 2000, 4000 and 8000 pg/ml A1AT) or blanks were then added to each well in duplicate and the plates were covered with a plate sealer and left at room temperature for 2 h. […] After which, 50 μl stop solution (2M H2SO4) was added and optical density (OD) of each well was read at 450 nm with 570 nm blank subtracted from each well using a microplate reader. A 4 parameter logistic curve was constructed using GraphPad Prism 7 and A1AT concentrations were determined in each sample by interpolation from a standard curve and multiplying by the appropriate dilution factor.\n(§3) The amount of human A1AT secreted from transfected HEK-EBNA cells into the media was measured by ELISA. […]"}, "[2]": {"molecular_target": "T2, human M A1AT (Homo sapiens, UniProt P01009)", "T2 construct": "expressed in transfected cells; host or cells: HEK-M cells (HEK-EBNA with M A1AT plasmid)", "T2 sequence (P01009 25-418)": "as the sequence (P01009 25-418 S77F) above, with F53S counted along it", "experiment": "A1AT cell secretion assay using HEK-M cells (ELISA)", "type": "cell-based", "details": "10 μM, 48 h", "procedure": "as §1, with “HEK-M cells, a” for “HEK-Siiyama cells, a”, “transfected with M A1AT, were plated” for “transfected with the Siiyama A1AT gene, were plated”, “media containing either vehicle, 10” for “media containing vehicle, 10”, “acid (at 10 μM)” for “acid (at 1 or 10 μM)”, “replicates of six for 48” for “replicates of eight for 48”, “(Human Serpin A1/α1 antitrypsin duo set” for “(Human Serpin A1/α1-antitrypsin duo set”\nas §2, with “(0.05% Tween in PBS)” for “(0.05% Tween 20 in PBS)”\nas §3"}}, "data": [{"smiles": "O=C(CCCCCCC(=O)Nc1ccccc1)NO", "note": "[SAHA, suberanilohydroxamic acid, reference compound]", "values": [{"measurement": "secretion of human Siiyama A1AT into cell supernatant (positive control)", "setting": "[1]", "value": "stimulates an increase in Siiyama A1AT secretion"}, {"measurement": "secretion of human M A1AT into cell supernatant", "setting": "[2]", "value": "stimulates an increase in M A1AT secretion"}]}]}
